Legend:
[1] = system: MDA-MB-436, MDA-MB-231, and 4T1 cell-derived xenografts; assay: Antitumor effect in tumor-bearing mice; format: in vivo; details: B102 15 mg/kg or B302 50 mg/kg, intraperitoneal, once daily, versus vehicle
Source text: MDA-MB-436, MDA-MB-231, and 4T1 cells were orthotopically injected into the fat pads of 6- to 7-week-old female NOD-Prkdc^scid Il2rg^em1Smoc (M-NSG), BALB/c nude and BALB/c mice, respectively. Fourteen 6-week-old female MMTV-PyMT mice were divided into two groups. The […] in each group were littermates. All animal procedures were approved by the Institutional Animal Care and Use Committee at Shenzhen University.
MDA-MB-436 cells (5 × 10^6) were suspended in PBS and Matrigel (Corning) at a 1:1 ratio and orthotopically injected into the fat pads of 6- to 7-week-old female NOD-Prkdc^scid Il2rg^em1Smoc (M-NSG) mice from the Shanghai Model Organisms Center, Inc. MDA-MB-231 cells (5 × 10^6) were suspended in PBS orthotopically injected into the fat pads of 6- to 7-week-old female BALB/c nude mice from the Shanghai Model Organisms Center, Inc. 4T1 cells (1 × 10^6) were suspended in PBS and injected into the fat pads of 6- to 7-week-old […] BALB/c mice from GemPharmatech Co., Ltd. When the tumor size reached 100 mm^3, the mice were randomly divided into three treatment groups without blinding: B102 (15 mg/kg), B302 (50 mg/kg) or vehicle [10% N,N-dimethylacetamide (DMAC, Sangon Biotech) and 6% polyethylene glycol 12-hydroxystearate (Solutol HS-15, MedChem Express, Monmouth Junction, NJ, USA) in saline] treatment via an intraperitoneal injection once daily. […]

[2] = system: cGAS–STING signaling pathway; assay: Western blot of cGAS–STING pathway activation; format: cell-based, human; details: MDA-MB-436 cells, 48 h
Experimental: Western blot analysis was performed as previously described, and all western blot analyses were performed at least three times.
Western blot analysis was performed as previously described. Briefly, whole cell or tissue lysates were prepared using ice-cold Nonidet P-40 buffer mixed with protease and phosphatase inhibitors (Roche, IN, USA) and centrifuged at 14,000 × g at 4 °C for 10 min. The protein lysates were fractionated by sodium dodecyl sulfate–polyacrylamide gel electrophoresis (SDS–PAGE) and transferred to polyvinylidene fluoride (PVDF) membranes (Merck, Darmstadt, Germany). Membranes were incubated in 1× TBST buffer containing 5% nonfat powdered milk at room temperature for 2 h. The indicated primary antibody was incubated with PVDF membranes, followed by a washing step using 1× TBST and a secondary antibody conjugated to HRP. Signal detection was carried out using the Western ECL Substrate kit (Bio-Rad, Hercules, CA, USA). […]

| SMILES | tumor growth [1] | activation of the cGAS–STING signaling pathway [2] |
| --- | --- | --- |
| Nc1cc(F)ccc1NC(=O)/C=C/c1ccc(CN2CCN(C(=O)c3cc(Cc4n[nH]c(=O)c5ccccc45)ccc3F)CC2)cc1 [Compound B102] | robust inhibition of tumor growth at low doses | – |
| Nc1cc(F)ccc1NC(=O)CCc1ccc(CN2CCN(C(=O)c3cc(Cc4n[nH]c(=O)c5ccccc45)ccc3F)CC2)cc1 [Compound B302] | – | concentration-dependent activation |

— PMC10770036, “Novel dual inhibitors of PARP and HDAC induce intratumoral STING-mediated antitumor immunity in triple-negative breast cancer” (Cell Death & Disease, 2024)
